From US11155576B2, “Synthetic peptides, enzymatic formation of pericellular hydrogels/nanofibrils, and methods of use” (BRANDEIS UNIVERSITY, priority 2014, dated 2021)

Experiments:
MES-SA/dx5 cells [1] = assay: Cell viability assay (MTT), MES-SA/dx5; type: cell-based, human; conditions: 280 μM; multi-drug resistant cells
Method: (§1) Cells in exponential growth phase were seeded in a 96 well plate at a concentration of 2×10^4 cells/well. The cells were allowed to attach to the wells for 24 hours at 37° C., 5% CO2. The culture medium was removed and 100 μL culture medium containing compounds (immediately diluted from fresh prepared stock solution of 10 mM) at gradient concentrations (0 μM as the control) was placed into each well. After culturing at 37° C., 5% CO2 for 48 hours, each well was added by 10 μL of 5 mg/mL MTT (3-(4,5-dimethylthiazoL-2-yl)-2,5-diphenyltetrazolium bromide), and the plated cells were incubated in the dark for 4 hours. 100 μL 10% SDS with 0.01M HCl was added to each well to stop the reduction reaction and to dissolve the purple. After overnight incubation of the cells at 37° C., the OD at 595 nm of the solution was measured in a microplate reader. Data represent the mean±standard deviation of three independent experiments.

[2] = Cell viability assay (MTT), Ect1/E6E7; type: cell-based; conditions: human, Ect1/E6E7 cells, read-out: Cells remaining viable
Method: as §1

MES-SA/dx5 cells [3] = assay: Pericellular hydrogel/nanonets on MES-SA/dx5 cells (Congo red/DAPI); type: cell-based, human; conditions: 280 μM, 12 hours
Method: (§2) FIG. 11 illustrates overlaid and 3D stacked z-scan images of Congo red and DAPI stained MES-SA and MES-SA/Dx5 cells treated with either 280 μM D-2a (upper panel) or medium alone (control, lower panel) for 12 hours. Scale bar=[…]. White dots outline the cells.
(§3) Cells in exponential growth phase were seeded in a glass bottomed culture chamber at 2×10^4 cells/well. Cells were allowed to attach for 24 hours at 37° C., 5% CO2. The culture medium was removed, and replaced with culture medium containing D-2a at 280 μM. Following 12 hours of incubation, cells were washed 3 times with PBS prior to being stained with 0.1 mg/mL Congo red and 0.6 μM DAPI in PBS buffer (30 minutes at 37° C. in the dark). Next, cells were rinsed three times with PBS, and then kept in PBS for imaging.

phosphatases = assay: Phosphatase activity assay of gel, suspension and control medium of HeLa cells; type: cell-based, human; conditions: HeLa cells treated with 560 μM D-2a, after removing the hydrogel
Method: Phosphatase activity was evaluated by the alkaline phosphatase assay using the Abcam Alkaline Phosphatase Assay Kit following the supplied protocol. In brief, 50 μL of 5 mM pNPP solution in assay buffer was mixed with 80 μL of the sample solutions in 96 well plate. The mixed solution was incubated at 25° C., protected from light. 20 μL of stop solution was added to each test and the OD at 405 nm of the solution was measured in a microplate reader.
To verify whether the pericellular hydrogel/nanonets block the entry of secretory proteins/enzymes into the culture medium, the amount of phosphatases in four experimental samples was evaluated: blank medium (Blank), medium incubated with untreated HeLa cells (Control), the pericellular hydrogel from HeLa cells treated with 560 μM D-2a for 12 hours (Gel), and the suspension of the medium of HeLa cells treated with D-2a after removing the hydrogel (Suspension). The amount of phosphatases accumulated in the Gel is about 27 times higher than that found in the Control (FIG. 3B). […] In other words, the pericellular hydrogel/nanonets largely block cellular mass exchange between the cells and their environment.

MES-SA cells [4] = assay: Pericellular hydrogel/nanonets on MES-SA cells (Congo red/DAPI); type: cell-based; conditions: 280 μM, 12 hours
Method: as §2, §3

HeLa cells [5] = assay: Western blot of tubulin in pericellular nanonets versus CM; type: cell-based, human; conditions: nanonets after 3 or 6 hours of incubation versus CM collected at 24 hours
Method: To select the optimal incubation time for the collection of nanonets/hydrogel, HeLa cells were incubated with D-2a (for 3, 6, or 9 hours, respectively) to allow nanonet formation. The amount of tubulin (an indicator of autolysis) present in the nanonets/hydrogels at various time points was evaluated by Western blot and compared to the amount of tubulin present in conditioned media (“CM”) collected following 24 hours of incubation (FIG. 33A). […] The results also indicate the cell compatibility of the incubation and collection process for nanonets/hydrogel.

HeLa cells [6] = assay: Cell adhesion assay; type: cell-based, human; conditions: 560 μM, trypsinized HeLa cells, at 4 hours
Method: Cells in exponential growth phase were detached using 0.25% trypsin-EDTA. After neutralizing trypsin by addition of complete culture medium, the cells were collected by centrifuge (1000 rpm, 3 min). The cell pellet was suspended by addition of culture medium to a concentration of 4×10^5 cells/mL. 1 mL of the cell suspension was mixed with 1 mL of 2×D-2a or D-2b containing culture media. The resulting solutions were added into 96 well plate at 100 μL/well. After the desired time of incubation at 37° C., 5% CO2, the solution was gently removed, and then 100 μL of culture medium and 10 μL of 5 mg/mL MTT were added to each well. Following 4 hour incubation in the dark, 100 μL of 10% SDS with 0.01M HCl was added to each well to stop the reduction reaction and to dissolve the purple. After incubation of the cells at 37° C. for overnight, the viability was measured. Data represent the mean±standard deviation of three independent experiments.

MES-SA cells [7] = assay: Cell viability assay (MTT), MES-SA; type: cell-based; conditions: 280 μM
Method: as §1

active Caspase 3 = assay: Apoptosis pathway assay (ELISA), active Caspase 3; type: cell-based, human; conditions: HeLa cells, 280 μM, at 24 and 32 hours of incubation
Method: The apoptosis pathway was evaluated using the PathScan® Apoptosis Multi-Target Sandwich ELISA Kit (Cell Signaling Technology) following the supplied protocol. Cells in exponential growth phase were seeded in a 6 cm Petri dish at a concentration of 10×10^5 cells/dish (5 dishes). Cells were allowed to attach to the wells for 24 hours at 37° C., 5% CO2. The culture medium was removed and 5 mL medium containing 280 μM D-2a (immediately diluted from fresh prepared stock solution of 11.2 mM) was placed into each dish. At 0, 6, 12, 24, or 32 hours, the medium was removed and cells were washed three times with cold PBS buffer. 0.9 mL lysis buffer was used to lyse cells in each dish, and 0.9 mL of diluents buffer was used to dilute each of the cell lysate. The lysate was incubated in the provided 96 well plate at 4° C. for 24 hours.
ELISA was used to quantify the amount of several key apoptosis signal molecules over time in the HeLa cells incubated with 280 μM D-2a (FIG. 3E).

O=C(Cc1ccc2ccccc2c1)N[C@H](Cc1ccccc1)C(=O)N[C@H](Cc1ccccc1)C(=O)N[C@H](Cc1ccc(OP(=O)(O)O)cc1)C(=O)O [D-2a, Nap-D-Phe-D-Phe-D-Tyr(PO3H2)]
Growth inhibition (MES-SA/dx5 cells [1]): inhibits the growth
viability at 48 h, 280 µM [2]: > 60%
Pericellular hydrogel/nanonets formation (MES-SA/dx5 cells [3]): forms pericellular hydrogel/nanonets
Amount of phosphatases in the Suspension relative to the Control (phosphatases): significantly lower than that in the Control
Pericellular hydrogel/nanonets formation (MES-SA cells [4]): forms pericellular hydrogel/nanonets
Amount of tubulin (indicator of autolysis) in nanonets (HeLa cells [5]): contain less tubulin than CM
Cells reattached to surface (HeLa cells [6]): less than 5%
Growth inhibition (MES-SA cells [7]): inhibits the growth
Amount of active Caspase 3 (active Caspase 3): increase significantly
